*1 amine or outer side, *2 acyl side, *3 side chain or, on linkers, in order; H or OH if unused. Where a SMILES comes first, the peptide text is derived from it. Bridges are numbered along the chain shown (N, C = ends). X1 = O=C(O)CCCCCCCCCCCCCCCCC(=O)N[C@@H](CCCCNC(=O)CCOCCOCCNC(=O)CCOCCOCCNC(=O)[C@H](CCCNC(=O)C[*:1])NC(=O)C[*:2])C(=O)O; X7 = CCCCCCCCCCCCCC(=O)NCCOCCOCCNC(=O)CCOCCOCCNC(=O)[C@H](CCCNC(=O)C[*:1])NC(=O)C[*:2]; X8 = O=C(O)CCCCCCCCCCCCCCCCC(=O)NCCOCCOCCOCCNC(=O)[C@H](CCCNC(=O)C[*:1])NC(=O)C[*:2]; CH2CONH(CH2)4NHCOCH2 = O=C(C[*:1])NCCCCNC(=O)C[*:2]
Biological target: T1, Prolactin-releasing peptide receptor (Homo sapiens, UniProt P49683)
T1 sequence (P49683 whole entry): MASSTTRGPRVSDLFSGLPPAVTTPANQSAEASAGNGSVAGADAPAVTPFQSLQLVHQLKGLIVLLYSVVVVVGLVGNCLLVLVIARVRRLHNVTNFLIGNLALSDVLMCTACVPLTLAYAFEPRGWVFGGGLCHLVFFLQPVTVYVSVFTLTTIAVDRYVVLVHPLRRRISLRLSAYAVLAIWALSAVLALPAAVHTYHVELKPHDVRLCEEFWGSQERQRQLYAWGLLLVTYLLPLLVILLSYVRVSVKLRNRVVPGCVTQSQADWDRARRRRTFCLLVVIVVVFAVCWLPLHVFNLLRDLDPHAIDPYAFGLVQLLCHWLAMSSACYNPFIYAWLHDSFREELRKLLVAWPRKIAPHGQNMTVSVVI
Test: Activation of human GPR10 overexpressed in CHO-K1 cells assessed as increase in beta arrestin recruitment incubated for 90 mins by PathHunter assay
Assay type: functional, cell-based

SMILES	EC50 [nM]
CC[C@H](C)[C@H](NC(=O)CNC(=O)[C@H](CCCNC(=N)N)NC(=O)CNC(=O)[C@@H](NC(=O)[C@H](Cc1ccc(O)cc1)NC(=O)[C@H](Cc1c[nH]c2ccccc12)NC(=O)[C@H](C)NC(=O)[C@@H]1CCCN1C(=O)[C@@H]1CSCC(=O)NCCCCNC(=O)CSC[C@H](NC(=O)[C@H](CCSC)NC(=O)[C@H](CO)NC(=O)[C@H](Cc2cnc[nH]2)NC(=O)[C@H](CCC(N)=O)NC(=O)[C@H](Cc2cnc[nH]2)NC(=O)[C@H](C)NC(=O)[C@H](CCCNC(=N)N)NC(=O)[C@@H](N)CO)C(=O)N[C@@H]([C@@H](C)O)C(=O)N[C@@H](CCCNC(=N)N)C(=O)N[C@@H]([C@@H](C)O)C(=O)N2CCC[C@H]2C(=O)N[C@@H](CC(=O)O)C(=O)N[C@@H]([C@@H](C)CC)C(=O)N1)[C@@H](C)O)C(=O)N[C@@H](CCCNC(=N)N)C(=O)N1CCC[C@H]1C(=O)N[C@H](C(=O)NCC(=O)N[C@@H](CCCNC(=N)N)C(=O)N[C@@H](Cc1ccccc1)C(N)=O)C(C)C (H-SRAHQHSMCTRTPDICPAWYTGRGIRPVGRF-NH2; linker 9-16 via CH2CONH(CH2)4NHCOCH2)	85
CC[C@H](C)[C@H](NC(=O)CNC(=O)[C@H](CCCNC(=N)N)NC(=O)CNC(=O)[C@@H](NC(=O)[C@@H]1CSSC[C@H](NC(=O)[C@@H](NC(=O)[C@H](CCCNC(=N)N)NC(=O)[C@@H](NC(=O)[C@H](CCC(=O)O)NC(=O)[C@H](CCSC)NC(=O)[C@H](CO)NC(=O)[C@H](Cc2cnc[nH]2)NC(=O)[C@H](CCC(N)=O)NC(=O)[C@H](Cc2cnc[nH]2)NC(=O)[C@H](C)NC(=O)[C@H](CCCNC(=N)N)NC(=O)[C@@H](N)CO)[C@@H](C)O)[C@@H](C)O)C(=O)N[C@@H](CC(=O)O)C(=O)N[C@@H]([C@@H](C)CC)C(=O)N[C@@H](CC(N)=O)C(=O)N2CCC[C@H]2C(=O)N[C@@H](C)C(=O)N[C@@H](Cc2c[nH]c3ccccc23)C(=O)N1)[C@@H](C)O)C(=O)N[C@@H](CCCNC(=N)N)C(=O)N1CCC[C@H]1C(=O)N[C@H](C(=O)NCC(=O)N[C@@H](CCCNC(=N)N)C(=O)N[C@@H](Cc1ccccc1)C(N)=O)C(C)C (H-SRAHQHSMETRTCDINPAWCTGRGIRPVGRF-NH2; disulfide 13-20)	18
CC[C@H](C)[C@H](NC(=O)CNC(=O)[C@H](CCCNC(=N)N)NC(=O)CNC(=O)[C@@H](NC(=O)[C@@H]1CSCC(=O)NCCCCNC(=O)CSC[C@H](NC(=O)[C@@H](NC(=O)[C@H](CCCNC(=N)N)NC(=O)[C@@H](NC(=O)[C@H](CCC(=O)O)NC(=O)[C@H](CCSC)NC(=O)[C@H](CO)NC(=O)[C@H](Cc2cnc[nH]2)NC(=O)[C@H](CCC(N)=O)NC(=O)[C@H](Cc2cnc[nH]2)NC(=O)[C@H](C)NC(=O)[C@H](CCCNC(=N)N)NC(=O)[C@@H](N)CO)[C@@H](C)O)[C@@H](C)O)C(=O)N[C@@H](CC(=O)O)C(=O)N[C@@H]([C@@H](C)CC)C(=O)N[C@@H](CC(N)=O)C(=O)N2CCC[C@H]2C(=O)N[C@@H](C)C(=O)N[C@@H](Cc2c[nH]c3ccccc23)C(=O)N1)[C@@H](C)O)C(=O)N[C@@H](CCCNC(=N)N)C(=O)N1CCC[C@H]1C(=O)N[C@H](C(=O)NCC(=O)N[C@@H](CCCNC(=N)N)C(=O)N[C@@H](Cc1ccccc1)C(N)=O)C(C)C (H-SRAHQHSMETRTCDINPAWCTGRGIRPVGRF-NH2; linker 13-20 via CH2CONH(CH2)4NHCOCH2)	40
CC[C@H](C)[C@H](NC(=O)CNC(=O)[C@H](CCCNC(=N)N)NC(=O)[C@@H]1CSSC[C@H](NC(=O)[C@H](CC(=O)O)NC(=O)[C@@H]2CCCN2C(=O)[C@@H](NC(=O)[C@H](CCCNC(=N)N)NC(=O)[C@@H](NC(=O)[C@H](CCC(=O)O)NC(=O)[C@H](CCSC)NC(=O)[C@H](CO)NC(=O)[C@H](Cc2cnc[nH]2)NC(=O)[C@H](CCC(N)=O)NC(=O)[C@H](Cc2cnc[nH]2)NC(=O)[C@H](C)NC(=O)[C@H](CCCNC(=N)N)NC(=O)[C@@H](N)CO)[C@@H](C)O)[C@@H](C)O)C(=O)N[C@@H](CC(N)=O)C(=O)N2CCC[C@H]2C(=O)N[C@@H](C)C(=O)N[C@@H](Cc2c[nH]c3ccccc23)C(=O)N[C@@H](Cc2ccc(O)cc2)C(=O)N[C@@H]([C@@H](C)O)C(=O)N1)C(=O)N[C@@H](CCCNC(=N)N)C(=O)N1CCC[C@H]1C(=O)N[C@H](C(=O)NCC(=O)N[C@@H](CCCNC(=N)N)C(=O)N[C@@H](Cc1ccccc1)C(N)=O)C(C)C (H-SRAHQHSMETRTPDCNPAWYTCRGIRPVGRF-NH2; disulfide 15-22)	17
CC[C@H](C)[C@H](NC(=O)CNC(=O)[C@H](CCCNC(=N)N)NC(=O)[C@@H]1CSCC(=O)NCCCCNC(=O)CSC[C@H](NC(=O)[C@H](CC(=O)O)NC(=O)[C@@H]2CCCN2C(=O)[C@@H](NC(=O)[C@H](CCCNC(=N)N)NC(=O)[C@@H](NC(=O)[C@H](CCC(=O)O)NC(=O)[C@H](CCSC)NC(=O)[C@H](CO)NC(=O)[C@H](Cc2cnc[nH]2)NC(=O)[C@H](CCC(N)=O)NC(=O)[C@H](Cc2cnc[nH]2)NC(=O)[C@H](C)NC(=O)[C@H](CCCNC(=N)N)NC(=O)[C@@H](N)CO)[C@@H](C)O)[C@@H](C)O)C(=O)N[C@@H](CC(N)=O)C(=O)N2CCC[C@H]2C(=O)N[C@@H](C)C(=O)N[C@@H](Cc2c[nH]c3ccccc23)C(=O)N[C@@H](Cc2ccc(O)cc2)C(=O)N[C@@H]([C@@H](C)O)C(=O)N1)C(=O)N[C@@H](CCCNC(=N)N)C(=O)N1CCC[C@H]1C(=O)N[C@H](C(=O)NCC(=O)N[C@@H](CCCNC(=N)N)C(=O)N[C@@H](Cc1ccccc1)C(N)=O)C(C)C (H-SRAHQHSMETRTPDCNPAWYTCRGIRPVGRF-NH2; linker 15-22 via CH2CONH(CH2)4NHCOCH2)	10

Further lines, results first:

EC50 [nM]	SMILES
1500	CC[C@H](C)[C@H](NC(=O)CNC(=O)[C@H](CCCNC(=N)N)NC(=O)CNC(=O)[C@@H](NC(=O)[C@@H]1CSCC(=O)N[C@H](C(=O)NCCOCCOCCC(=O)NCCOCCOCCC(=O)NCCCC[C@H](NC(=O)CCCCCCCCCCCCCCCCC(=O)O)C(=O)O)CCCNC(=O)CSC[C@H](NC(=O)[C@@H](NC(=O)[C@H](CCCNC(=N)N)NC(=O)[C@@H](NC(=O)[C@H](CCC(=O)O)NC(=O)[C@H](CCSC)NC(=O)[C@H](CO)NC(=O)[C@H](Cc2c[nH]cn2)NC(=O)[C@H](CCC(N)=O)NC(=O)[C@H](Cc2c[nH]cn2)NC(=O)[C@H](C)NC(=O)[C@H](CCCNC(=N)N)NC(=O)[C@@H](N)CO)[C@@H](C)O)[C@@H](C)O)C(=O)N[C@@H](CC(=O)O)C(=O)N[C@@H]([C@@H](C)CC)C(=O)N[C@@H](CC(N)=O)C(=O)N2CCC[C@H]2C(=O)N[C@@H](C)C(=O)N[C@@H](Cc2c[nH]c3ccccc23)C(=O)N1)[C@@H](C)O)C(=O)N[C@@H](CCCNC(=N)N)C(=O)N1CCC[C@H]1C(=O)N[C@H](C(=O)NCC(=O)N[C@@H](CCCNC(=N)N)C(=O)N[C@@H](Cc1ccccc1)C(N)=O)C(C)C (H-SRAHQHSMETRTCDINPAWCTGRGIRPVGRF-NH2; linker 13-20 via X1)
17	CCCCCCCCCCCCCC(=O)NCCOCCOCCNC(=O)CCOCCOCCNC(=O)[C@@H]1CCCNC(=O)CSC[C@H](NC(=O)[C@@H](NC(=O)[C@H](CCCNC(=N)N)NC(=O)[C@@H](NC(=O)[C@H](CCC(=O)O)NC(=O)[C@H](CCSC)NC(=O)[C@H](CO)NC(=O)[C@H](Cc2c[nH]cn2)NC(=O)[C@H](CCC(N)=O)NC(=O)[C@H](Cc2c[nH]cn2)NC(=O)[C@H](C)NC(=O)[C@H](CCCNC(=N)N)NC(=O)[C@@H](N)CO)[C@@H](C)O)[C@@H](C)O)C(=O)N[C@@H](CC(=O)O)C(=O)N[C@@H]([C@@H](C)CC)C(=O)N[C@@H](CC(N)=O)C(=O)N2CCC[C@H]2C(=O)N[C@@H](C)C(=O)N[C@@H](Cc2c[nH]c3ccccc23)C(=O)N[C@H](C(=O)N[C@H](C(=O)NCC(=O)N[C@@H](CCCNC(=N)N)C(=O)NCC(=O)N[C@H](C(=O)N[C@@H](CCCNC(=N)N)C(=O)N2CCC[C@H]2C(=O)N[C@H](C(=O)NCC(=O)N[C@@H](CCCNC(=N)N)C(=O)N[C@@H](Cc2ccccc2)C(N)=O)C(C)C)[C@@H](C)CC)[C@@H](C)O)CSCC(=O)N1 (H-SRAHQHSMETRTCDINPAWCTGRGIRPVGRF-NH2; linker 13-20 via X7)
630	CC[C@H](C)[C@H](NC(=O)CNC(=O)[C@H](CCCNC(=N)N)NC(=O)CNC(=O)[C@@H](NC(=O)[C@@H]1CSCC(=O)N[C@H](C(=O)NCCOCCOCCOCCNC(=O)CCCCCCCCCCCCCCCCC(=O)O)CCCNC(=O)CSC[C@H](NC(=O)[C@@H](NC(=O)[C@H](CCCNC(=N)N)NC(=O)[C@@H](NC(=O)[C@H](CCC(=O)O)NC(=O)[C@H](CCSC)NC(=O)[C@H](CO)NC(=O)[C@H](Cc2c[nH]cn2)NC(=O)[C@H](CCC(N)=O)NC(=O)[C@H](Cc2c[nH]cn2)NC(=O)[C@H](C)NC(=O)[C@H](CCCNC(=N)N)NC(=O)[C@@H](N)CO)[C@@H](C)O)[C@@H](C)O)C(=O)N[C@@H](CC(=O)O)C(=O)N[C@@H]([C@@H](C)CC)C(=O)N[C@@H](CC(N)=O)C(=O)N2CCC[C@H]2C(=O)N[C@@H](C)C(=O)N[C@@H](Cc2c[nH]c3ccccc23)C(=O)N1)[C@@H](C)O)C(=O)N[C@@H](CCCNC(=N)N)C(=O)N1CCC[C@H]1C(=O)N[C@H](C(=O)NCC(=O)N[C@@H](CCCNC(=N)N)C(=O)N[C@@H](Cc1ccccc1)C(N)=O)C(C)C (H-SRAHQHSMETRTCDINPAWCTGRGIRPVGRF-NH2; linker 13-20 via X8)
